Experimental findings from patent US20050214744A1, “New mutational profiles in hiv-1 reverse transcriptase correlated with phenotypic drug resistance” (priority 2002, published 2005) are described below.

The test system of test [1] is SM26 (K103N, Y181C). Briefly: Antiviral activity against starting strain SM26 in acutely infected MT4 cells. Type of test: cell-based, HIV-1. To be noted: for EC50: Human immunodeficiency virus 1, no selecting compound, unit inferred, read-out: Median EC50; for FC (fold change in resistance, ratio of EC50 vs wild type): no selecting compound. The method, then:
(§1) Determination of the antiviral activity of a compound was done as described in Pauwels R. et al. (J Virol Methods 1988; 20(4):309-21). Various concentrations of the test compounds were brought into each well of a flat-bottom microtiter plate. Subsequently, HIV and MT4 cells were added to a final concentration of 200-250 50% cell culture infectious doses (CCID50)/well and 30,000 cells/well, respectively. After 5 days of incubation (37° C., 5% CO2), the cytopathic effect of the replicating virus was determined by the tetrazolium colorimetric MTT method. The dose protecting 50% of the cells from virus cytopathic effect was defined as the EC50, while the dose achieving 90% protection was defined as the EC90. Reporter gene assay The reporter gene assay used MT4-LTR-EGFP cells. Upon infection by HIV-1, the expression of the viral tat product increases transcription from the HIV-1 LTR promoter, leading to high-level expression of the reporter gene product. The assay procedure was similar to the CPE assay, except for the end reading of the assay, which was performed on day 3 by measuring the relative fluorescence of treated cultures and comparing this with the relative fluorescence of untreated cultures. The EC50 or the EC90 of a compound was defined as the concentration that inhibited the relative fluorescence by 50% or 90% respectively.
(§2) Cells are infected at a high MOI (such as 1-50 CCID50/cell), corresponding to >10^9 viral RNA copies/ml. These experiments have been designed to mimic the quasi-species variability that is observed in HIV infected individuals where 10^9 to 10^10 new viruses are produced daily with a mutation rate of 10^−4 to 10^−5. The infected MT4-LTR-EGFP cells are treated with inhibitors at 40, 200 nM, 1 μM and higher for a maximum of 30 days. The cultures are sub-cultivated and scored on virus-induced fluorescence and cytopathicity every 3-4 days. If full virus breakthrough (100% CPE) is observed the supernatants was collected and stored (new virus strain). If no full CPE was observed the cells were sub-cultivated and further grown in the presence of the same concentration compound till full virus breakthrough, with a maximum of 30 days. From the emerging virus populations a virus stock was grown in the absence of compounds and titrated. The sensitivities of the isolated strains to HIV-1 RT inhibitors were determined and the strains were genotyped.
(§3) In vitro drug selection experiments starting from wild-type HIV-1/LAI under pressure of compound 1 have been performed.

Test [2] relates to SM26-derived strain K103N, Y181C, E194E/K. The test can be described thus: Antiviral activity against strain selected with compound 1 0.040 μM, acutely infected MT4 cells. To be noted: SM26 selected with Compound 1 0.040 μM, breakthrough day 7, additional E194E/K; for EC50: Human immunodeficiency virus 1, MT4, 168 h, unit inferred, read-out: Median EC50. Type of test: cell-based, HIV-1. The method, then: as §1, §2, §3

Test [3] has as its system SM26-derived strain K103N, Y181C, L100I, V189V/I, E194G/E. The test can be described thus: Antiviral activity against strain selected with compound 1 0.200 μM (day 7), acutely infected MT4 cells. Type of test: cell-based, HIV-1. To be noted: SM26 selected with Compound 1 0.200 μM, breakthrough day 7, additional L100I; for EC50: Human immunodeficiency virus 1, MT4, 168 h, unit inferred, read-out: Median EC50. The method, then: as §1, §2, §3

Test [4] deals with SM26-derived strain K103N, Y181C, L100I, V189I, E194G. Briefly: Antiviral activity against strain selected with compound 1 1.000 μM (day 13), acutely infected MT4 cells. Type of test: cell-based, HIV-1. The conditions noted are these: SM26 selected with Compound 1 1.000 μM, breakthrough day 13, additional L100I; for EC50: Human immunodeficiency virus 1, MT4, 312 h, unit inferred, read-out: Median EC50. As for the experimental part: as §1, §2, §3

Test [5] relates to SM26 (K103N, Y181C). Briefly: In vitro selection of resistant strains at high MOI (virus breakthrough). Type of test: cell-based, HIV-1.
The test system of test [6] is SM26-derived strain K103N, Y181C, L100I, E194G. Briefly: Antiviral activity against strain selected with compound 1 1.000 μM (day 11), acutely infected MT4 cells. Type of test: cell-based, HIV-1. To be noted: SM26 selected with Compound 1 1.000 μM, breakthrough day 11, additional L100I; for EC50: Human immunodeficiency virus 1, MT4, 264 h, unit inferred, read-out: Median EC50. As for the experimental part:
as §1, §2, §3

The subject of test [7] is HIV-1/LAI. Briefly: Antiviral activity against wild-type strain in acutely infected MT4 cells. Type of test: cell-based. The conditions noted are these: for EC50: Human immunodeficiency virus 1, table prints no unit (EC50 in μM), read-out: Median EC50. The method, then:
as §1, §2, §3

Test [8] relates to SM26-derived strain K103N, Y181C, L100I, V189V/I, E194G/E, R356R/K. The test can be described thus: Antiviral activity against strain selected with compound 1 0.200 μM (day 9), acutely infected MT4 cells. To be noted: SM26 selected with Compound 1 0.200 μM, breakthrough day 9, additional L100I; for EC50: Human immunodeficiency virus 1, MT4, 216 h, unit inferred, read-out: Median EC50. Type of test: cell-based, HIV-1. As for the experimental part:
as §1, §2, §3

Structures are written as SMILES.

For `Cc1cc(C#N)cc(C)c1Oc1nc(Nc2ccc(C#N)cc2)nc(N)c1Br` [Compound 1, Benzonitrile, 4-[[6-amino-5-bromo-2-[(4-cyanophenyl)-amino]-4-pyrimidinyl]oxy]-3,5-dimethyl-], the EC50 in test [1] is 5 nM; in test [2] it was 7.8 nM; in test [3] it was 149 nM; in test [4] it was 261 nM; in test [6], 668 nM; in test [7], 0.0014 µM. Besides, the EC50 in test [8] was 26.8 nM. Besides, the “FC (fold change in resistance, ratio of EC50 vs wild type)” value was 4 in test [1]; 6 in test [2]; 106 in test [3]; 187 in test [4]; 477 in test [6]; 1 in test [7]. In addition, in test [8], the “FC (fold change in resistance, ratio of EC50 vs wild type)” value is recorded as 19. Besides, the Days to breakthrough entry in test [5] (0.040 μM, selected E194E/K) is on record as “day 7”; in test [5] (0.200 μM (first culture), selected L100I, V189V/I, E194G/E), “day 7”; in test [5] (0.200 μM (second culture), selected L100I, V189V/I, E194G/E, R356R/K), “day 9”; in test [5] (1.000 μM (first culture), selected L100I, E194G), “day 11”; in test [5] (1.000 μM (second culture), selected L100I, V189I, E194G), “day 13”.

In the case of `O=C1Nc2ccc(Cl)cc2[C@@](C#CC2CC2)(C(F)(F)F)O1` [Efavirenz], the EC50 in test [1] was determined as 36.7 nM; in test [2], 32.7 nM; in test [3] it was 2750 nM; in test [4] it was 3600 nM; in test [6], 6730 nM; in test [7] it was 0.001 µM. In addition, in test [8], the EC50 worked out at 56.5 nM. The “FC (fold change in resistance, ratio of EC50 vs wild type)” value in test [1] came to 37; in test [2], 33; in test [3], 2.747; in test [4], 3.595; in test [7] it was 1; in test [8], 57.

For the compound `Cc1ccnc2c1NC(=O)c1cccnc1N2C1CC1` [Nevirapine], the EC50 in test [1] was above 10000 nM; in test [2], above 10000 nM; in test [3], above 10000 nM; in test [4] it was above 10000 nM; in test [6], above 10000 nM; in test [7], 0.0763 µM. Besides, the half-maximal effective concentration (EC50) in test [8] is above 10000 nM. Besides, the “FC (fold change in resistance, ratio of EC50 vs wild type)” value in test [1] is reported as above 131; in test [2], above 131; in test [3] it was above 131; in test [4], above 131; in test [6] it was above 131; in test [7], 1. The “FC (fold change in resistance, ratio of EC50 vs wild type)” value in test [8] is above 131.

The EC50 is the midpoint of the concentration-response curve.
